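Grown in 96-well plates, cells were treated for 48 hours with each compound at five concentrations. Insufficient inhibition: endpoint recorded as highest concentration tested. The concentration for 50% growth inhibition is given as GI50.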 Calls of active or inactive are those of the source. No stated cut-off is given here; in the data, active = GI50 up to about 1.1 µM and inactive = higher.
Columns and labels:
Experiment in all cases: growth of human tumour cells (NCI), 48 h
NCI-H460 = system: NCI-H460
Hs-578T = system: Hs-578T
BT-549 = system: BT-549
A498 = system: A498
SN12C = system: SN12C
SK-MEL-28 = system: SK-MEL-28
HCC 2998 = system: HCC 2998
DU-145 = system: DU-145
A549 = system: A549
T47D = system: T47D
OVCAR-3 = system: OVCAR-3
MDA-MB-231 = system: MDA-MB-231
K562 = system: K562
SNB-78 = system: SNB-78
M19-MEL = system: M19-MEL
786-0 = system: 786-0
DMS-273 = system: DMS-273
MOLT-4 = system: MOLT-4
DLD-1 = system: DLD-1
KM-20L2 = system: KM-20L2

Structure (SMILES) | GI50 (NCI-H460) | GI50 (Hs-578T) | GI50 (BT-549) | GI50 (A498) | GI50 (SN12C) | GI50 (SK-MEL-28) | GI50 (HCC 2998) | GI50 (DU-145) | GI50 (A549) | GI50 (T47D) | GI50 (OVCAR-3) | GI50 (MDA-MB-231) | GI50 (K562) | GI50 (SNB-78) | GI50 (M19-MEL) | GI50 (786-0) | GI50 (DMS-273) | GI50 (MOLT-4) | GI50 (DLD-1) | GI50 (KM-20L2)
C1CSCCSCSCCS1 | > 100 µM (inactive) | > 100 µM (inactive) | > 100 µM (inactive) | > 100 µM (inactive) | > 100 µM (inactive) | > 100 µM (inactive) | > 100 µM (inactive) | > 100 µM (inactive) | > 100 µM (inactive) | > 100 µM (inactive) | > 100 µM (inactive) | > 100 µM (inactive) | – | – | – | – | – | – | – | –
C#Cc1cccc(N2C(=O)c3c(c(-c4ccccc4)c(-c4ccc(Cc5ccc(-c6c(-c7ccccc7)c7c(c(-c8ccccc8)c6-c6ccccc6)C(=O)N(c6cccc(C#C)c6)C7=O)cc5)cc4)c(-c4ccccc4)c3-c3ccccc3)C2=O)c1 | 43.2 µM (inactive) | – | – | – | 20.7 µM (inactive) | > 100 µM (inactive) | 44.7 µM (inactive) | – | 24.4 µM (inactive) | – | 44.3 µM (inactive) | – | 16.9 µM (inactive) | 47.4 µM (inactive) | 23.1 µM (inactive) | 30.2 µM (inactive) | 52.2 µM (inactive) | 14.3 µM (inactive) | 32.9 µM (inactive) | 16.2 µM (inactive)
CC1CC[P+](c2ccccc2)(c2ccccc2)c2c1ccc1ccccc21 (configuration not stated) | 2 µM (inactive) | 1.46 µM (inactive) | 0.764 µM (active) | – | 2.49 µM (inactive) | – | 9.48 µM (inactive) | – | 4.83 µM (inactive) | 0.883 µM (active) | – | – | 0.589 µM (active) | 2.67 µM (inactive) | 1.69 µM (inactive) | – | 0.405 µM (active) | 5.66 µM (inactive) | 3.74 µM (inactive) | 2.5 µM (inactive)
CC(C)=CCC/C(C)=C/C=C/C(C)=C/C1C[C@@]2(C(O)O1)[C@H](CCCO)/C(=C(/C)C=O)CC[C@]2(C)O (some centres not stated) | 6.64 µM (inactive) | – | – | – | 15.6 µM (inactive) | 15.9 µM (inactive) | 15 µM (inactive) | – | 7.8 µM (inactive) | – | – | – | 8.89 µM (inactive) | 20.5 µM (inactive) | 16.2 µM (inactive) | – | 1.39 µM (inactive) | 4.95 µM (inactive) | 16.4 µM (inactive) | 15.3 µM (inactive)
Cc1ccc(NC(=O)OCC(COc2ccc(Cl)cc2)OC(=O)Nc2ccc(C)cc2)cc1 (configuration not stated) | 25.9 µM (inactive) | – | – | 13.2 µM (inactive) | 20.4 µM (inactive) | 35.1 µM (inactive) | 39 µM (inactive) | – | 13.7 µM (inactive) | – | 14.6 µM (inactive) | – | 9.27 µM (inactive) | 23.2 µM (inactive) | 22.4 µM (inactive) | – | 15.8 µM (inactive) | 16.2 µM (inactive) | 30.5 µM (inactive) | 36.7 µM (inactive)
COc1ccc(-c2nc3ccc([N+](=O)[O-])cc3c(=O)[nH]2)cc1 | > 80 µM (inactive) | – | – | 29.3 µM (inactive) | 66.4 µM (inactive) | > 100 µM (inactive) | > 100 µM (inactive) | – | 53.2 µM (inactive) | – | 28.4 µM (inactive) | – | > 100 µM (inactive) | 19.9 µM (inactive) | > 100 µM (inactive) | – | 48.4 µM (inactive) | > 100 µM (inactive) | 88.3 µM (inactive) | > 100 µM (inactive)
CCOC(=O)N1C=NC23C(c4ccccc4)C(c4ccccc4)C12C(=O)N(C)C(=O)N3C (configuration not stated) | > 100 µM (inactive) | – | – | > 100 µM (inactive) | > 100 µM (inactive) | > 100 µM (inactive) | > 100 µM (inactive) | – | > 100 µM (inactive) | – | > 100 µM (inactive) | – | > 100 µM (inactive) | – | > 100 µM (inactive) | > 100 µM (inactive) | > 100 µM (inactive) | > 100 µM (inactive) | > 100 µM (inactive) | > 100 µM (inactive)
c1cncc(O[Si](Oc2cccnc2)(Oc2cccnc2)Oc2cccnc2)c1 | > 100 µM (inactive) | – | – | – | > 100 µM (inactive) | > 100 µM (inactive) | > 100 µM (inactive) | – | > 100 µM (inactive) | – | > 100 µM (inactive) | – | – | > 100 µM (inactive) | > 100 µM (inactive) | – | > 100 µM (inactive) | > 100 µM (inactive) | > 100 µM (inactive) | –
CCCCNC(=O)N/C=C1\C(=O)Oc2ccccc2C1=O | > 100 µM (inactive) | – | – | – | 29.5 µM (inactive) | 30.1 µM (inactive) | > 100 µM (inactive) | – | 80.9 µM (inactive) | – | – | – | – | 19.9 µM (inactive) | 54.5 µM (inactive) | – | 76.6 µM (inactive) | 35.3 µM (inactive) | – | > 100 µM (inactive)
Cn1c(=O)c(-c2ccccc2)c(N=[N+]=[N-])c2ccccc21 | 39.4 µM (inactive) | 37.7 µM (inactive) | 44.2 µM (inactive) | 42.6 µM (inactive) | 95.9 µM (inactive) | 66.4 µM (inactive) | 22.4 µM (inactive) | > 100 µM (inactive) | 67.8 µM (inactive) | 19.8 µM (inactive) | 44.2 µM (inactive) | 49.5 µM (inactive) | 34.8 µM (inactive) | – | – | – | – | 20.9 µM (inactive) | – | –
N#Cc1ccc(C2Oc3ccc(Cl)cc3C=C2[N+](=O)[O-])cc1 (configuration not stated) | 2.22 µM (inactive) | 6.32 µM (inactive) | 0.581 µM (active) | 2.38 µM (inactive) | 1.31 µM (inactive) | 1.82 µM (inactive) | 0.979 µM (active) | 2.34 µM (inactive) | 1.85 µM (inactive) | 0.34 µM (active) | 1.63 µM (inactive) | 1.8 µM (inactive) | 0.354 µM (active) | – | – | – | – | 0.906 µM (active) | – | –
CC(O)C(CO)NC(=O)C1CSSCC(NC(=O)C(N)Cc2ccccc2)C(=O)NC(Cc2ccccc2)C(=O)NC(Cc2c[nH]c3ccccc23)C(=O)NC(CCCCN)C(=O)NC(C(C)O)C(=O)N1 (configuration not stated) | > 100 µM (inactive) | – | – | > 100 µM (inactive) | > 100 µM (inactive) | > 100 µM (inactive) | – | > 100 µM (inactive) | > 100 µM (inactive) | > 100 µM (inactive) | > 100 µM (inactive) | > 100 µM (inactive) | > 100 µM (inactive) | – | – | > 100 µM (inactive) | – | > 100 µM (inactive) | – | –
CNC(=S)Nc1sc2c(c1C#N)CCCC2 | > 75 µM (inactive) | > 75 µM (inactive) | > 75 µM (inactive) | > 75 µM (inactive) | > 75 µM (inactive) | > 75 µM (inactive) | > 75 µM (inactive) | > 75 µM (inactive) | – | > 75 µM (inactive) | > 75 µM (inactive) | > 75 µM (inactive) | > 75 µM (inactive) | – | – | > 75 µM (inactive) | – | > 75 µM (inactive) | – | –
Cc1cc2c(cc1C)[n+]([O-])c(C#N)c(Cl)[n+]2[O-] | 11.7 µM (inactive) | 15.9 µM (inactive) | 15.6 µM (inactive) | 19.7 µM (inactive) | 13.6 µM (inactive) | 14.1 µM (inactive) | 11 µM (inactive) | 14.9 µM (inactive) | 18.6 µM (inactive) | – | 7.78 µM (inactive) | 19.1 µM (inactive) | 10.3 µM (inactive) | – | – | – | – | 5.05 µM (inactive) | – | –
N=S(=O)(c1ccccc1)c1ccccc1[N+](=O)[O-] (configuration not stated) | > 100 µM (inactive) | – | – | > 100 µM (inactive) | > 100 µM (inactive) | – | > 100 µM (inactive) | – | > 100 µM (inactive) | – | > 100 µM (inactive) | – | > 100 µM (inactive) | > 100 µM (inactive) | > 100 µM (inactive) | > 100 µM (inactive) | > 100 µM (inactive) | > 100 µM (inactive) | > 100 µM (inactive) | > 100 µM (inactive)
CN1CN(c2ccccc2)C2(CCNCC2)C1=O | > 100 µM (inactive) | > 100 µM (inactive) | > 100 µM (inactive) | > 100 µM (inactive) | > 100 µM (inactive) | > 100 µM (inactive) | > 100 µM (inactive) | > 100 µM (inactive) | > 100 µM (inactive) | > 100 µM (inactive) | > 100 µM (inactive) | > 100 µM (inactive) | > 100 µM (inactive) | – | – | > 100 µM (inactive) | – | > 100 µM (inactive) | – | –
N#C[C@H](OC1OC(COC2OC(CO)C(O)C(O)C2O)C(O)C(O)C1O)c1ccccc1 (some centres not stated) | > 250 µM (inactive) | – | – | > 11.6 µM (inactive) | > 250 µM (inactive) | > 250 µM (inactive) | > 250 µM (inactive) | – | > 250 µM (inactive) | – | > 250 µM (inactive) | – | > 250 µM (inactive) | 228 µM (inactive) | > 250 µM (inactive) | – | > 250 µM (inactive) | 158 µM (inactive) | > 250 µM (inactive) | > 250 µM (inactive)
O=C1CCC23CC(C=CC=C12)n1c(=O)n(-c2ccccc2)c(=O)n13 (configuration not stated) | > 100 µM (inactive) | – | – | > 100 µM (inactive) | > 100 µM (inactive) | > 69.2 µM (inactive) | > 100 µM (inactive) | – | > 63.8 µM (inactive) | – | > 100 µM (inactive) | – | 39.8 µM (inactive) | > 59.2 µM (inactive) | > 100 µM (inactive) | – | 71.4 µM (inactive) | 49.7 µM (inactive) | 66.2 µM (inactive) | –
SC1=Nc2ccccc2-c2nc(-c3ccccc3)cc(-c3ccc(Br)cc3)c2C1 | 0.859 µM (active) | 0.891 µM (active) | 5.53 µM (inactive) | 1.01 µM (active) | 0.791 µM (active) | 11.2 µM (inactive) | 3.17 µM (inactive) | 3.48 µM (inactive) | 2.32 µM (inactive) | 1.48 µM (inactive) | 2.29 µM (inactive) | 1.44 µM (inactive) | 2.9 µM (inactive) | – | – | – | – | 18.2 µM (inactive) | – | –
